# From US20250154154A1 (Relay Binney Street, 2nd Floor, priority 2020, published 2025)
# Where a name gives a salt, the structure may show the parent alone.
# What was measured:
# [1] = tested on: phospho-S6RP (Ser 235/236) in RBE cells; assay: Cellular Proliferation Protocol (cellular phospho-S6RP HTRF), RBE cells; format: cell-based; conditions: 6 hours treatment, RBE or SNU-1079 cells, cell line not given
# Summary of the method: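 RBE cells, 2000/well, seeded 24 h before 6 h compound treatment at 37° C. Lysates were probed with a Eu-cryptate/d2 HTRF antibody sandwich for phospho-S6RP (Ser 235/236), incubated overnight at room temperature. Signal normalised to DMSO control and IC50 fitted to a 4-parameter curve.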
# RBE cells = assay: Cell Viability Protocol (CellTiterGlo), RBE cells; format: cell-based; conditions: RBE or SNU-1079 cells, 72 or 120 hour, cell line and time not given
# Summary of the method: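 RBE cells plated at 1200/well in RPMI 1640 with 10% FBS, incubated 24 h, then dosed with compound from DMSO stocks and incubated 72 or 120 h at 37° C. CellTiterGlo luminescence normalised to DMSO control; IC50 from 4-parameter fit.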
# SRC = SRC (Homo sapiens, UniProt P12931); assay: SRC Biochemical Assay Protocol (microfluidic mobility shift assay, FLPeptide4 substrate)
# SRC, sequence (P12931 whole entry, species assumed): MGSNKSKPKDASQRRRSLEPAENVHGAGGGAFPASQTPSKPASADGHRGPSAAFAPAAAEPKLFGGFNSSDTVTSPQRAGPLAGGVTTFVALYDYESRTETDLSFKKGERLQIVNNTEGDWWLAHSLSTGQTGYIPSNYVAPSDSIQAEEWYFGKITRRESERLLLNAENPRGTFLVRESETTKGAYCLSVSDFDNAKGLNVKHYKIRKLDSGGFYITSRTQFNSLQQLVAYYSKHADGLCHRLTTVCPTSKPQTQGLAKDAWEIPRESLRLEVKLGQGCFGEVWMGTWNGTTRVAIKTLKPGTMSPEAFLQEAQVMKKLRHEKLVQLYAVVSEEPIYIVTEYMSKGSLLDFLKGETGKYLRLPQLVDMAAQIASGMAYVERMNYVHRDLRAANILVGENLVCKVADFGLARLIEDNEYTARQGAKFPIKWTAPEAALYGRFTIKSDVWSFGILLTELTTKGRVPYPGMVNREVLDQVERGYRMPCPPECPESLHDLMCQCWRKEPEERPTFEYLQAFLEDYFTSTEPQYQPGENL
# Summary of the method: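 Recombinant SRC (0.26 nM) preincubated 30 min at RT with compound (0.0017–100 μM) and 1.5 μM FLPeptide4, then 50 μM ATP added; 90 min reaction in HEPES pH 7.4, 10 mM MgCl2, 1% DMSO, EDTA-quenched. Phosphopeptide quantified by microfluidic mobility shift; IC50 from 4-parameter logistic fit.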
IC50 (SRC) [µM],Compound,IC50 ([1]; 6 h) [µM],IC50 (RBE cells) [µM],IC50 [1] [µM]
0.01 to 1,"Cn1c(C#CC2CCCN(C(=O)/C=C/CN3CCCCC3)CC2)c(-c2ccc(Oc3ccccc3)cc2)c2c(N)ncnc21 (stereo not drawn) [II-180, (E)-1-(4-((4-amino-7-methyl-5-(4-phenoxyphenyl)-7H-pyrrolo[2,3-d]pyrimidin-6-yl)ethynyl)azepan-1-yl)-4-(piperidin-1-yl)but-2-en-1-one formate]",1 to 10,1 to 10,
0.01 to 1,C=CC(=O)N1CCC(N2CC(C#Cc3c(-c4cccc5c4OCO5)c4c(N)ncnc4n3C)C2)CC1 [II-37],,0.01 to 1,0.01 to 1
≤ 0.01,C=CS(=O)(=O)N1CC[C@@H](N2CC(C#Cc3c(-c4ccc(Oc5ccccc5)cc4)c4c(N)ncnc4n3C)C2)[C@@H](O)C1 [II-280],0.01 to 1,≤ 0.01,
0.01 to 1,C=CC(=O)N1CCC(C#Cc2c(-c3ccc(Oc4ccccc4)cc3)c3c(N)ncnc3n2C(C)COC)CC1 (stereo not drawn) [Example I-57],0.01 to 1,0.01 to 1,
0.01 to 1,"Cn1c(C#CC2CN(C(=O)/C=C/CN3CC(F)C3)C2)c(-c2ccc(Oc3ccccc3)cc2)c2c(N)ncnc21 [II-172, (E)-1-(3-((4-amino-7-methyl-5-(4-phenoxyphenyl)-7H-pyrrolo [2,3-d]pyrimidin-6-yl)ethynyl)azetidin-1-yl)-4-(3-fluoroazetidin-1-yl)but-2-en-1-one]",0.01 to 1,0.01 to 1,
≤ 0.01,C=CS(=O)(=O)N1CCC(N2CC(C#Cc3c(-c4ccc(Oc5ccccc5)c(OC)n4)c4c(N)ncnc4n3C)C2)CC1 [II-322],,0.01 to 1,0.01 to 1
≤ 0.01,C=CC(=O)N1CC[C@H](N2CC(C#Cc3c(-c4cccc5c4OCO5)c4c(N)ncnc4n3C(C)C)C2)[C@H](F)C1 [II-110],,0.01 to 1,≤ 0.01
0.01 to 1,"C=CC(=O)N1CC[C@H](N2CC(F)(C#Cc3c(-c4ccc(Oc5cccc(C)n5)cc4)c4c(N)ncnc4n3C)C2)[C@@H](O)C1 [II-220, 1-((3S,4S)-4-(3-((4-amino-7-methyl-5-(4-((6-methylpyridin-2-yl)oxy)phenyl)-7H-pyrrolo[2,3-d]pyrimidin-6-yl)ethynyl)-3-fluoroazetidin-1-yl)-3-hydroxypiperidin-1-yl)prop-2-en-1-one]",0.01 to 1,0.01 to 1,
0.01 to 1,"C=CC(=O)N1CCC(N2CC(C#Cc3c(-c4ccc(Oc5ccccc5)cc4)c4c(N)ncnc4n3C)C2)C1 (stereo not drawn) [II-195, 1-(3-(3-((4-amino-7-methyl-5-(4-phenoxyphenyl)-7H-pyrrolo[2,3-d]pyrimidin-6-yl)ethynyl)azetidin-1-yl)pyrrolidin-1-yl)prop-2-en-1-one]",0.01 to 1,0.01 to 1,
> 10,C=CC(=O)N1CCC(N2CC(C#Cc3c(-c4ccc(Oc5ccccc5)c(Cl)n4)c4c(N)ncnc4n3C)C2)CC1 [II-314],,0.01 to 1,0.01 to 1
0.01 to 1,C=CC(=O)N1CC[C@@H](N2CC(C#Cc3c(-c4ccc(Cl)c(CF)c4)c4c(N)ncnc4n3C)C2)[C@@H](O)C1 [II-58],,0.01 to 1,0.01 to 1
0.01 to 1,C=CC(=O)N[C@H](CO)C(=O)N1CCC(C#Cc2c(-c3ccc(Oc4ccccc4)cc3)c3c(N)ncnc3n2C)CC1 [II-197],0.01 to 1,0.01 to 1,
0.01 to 1,C=CC(=O)N1CCC(N2CC(C#Cc3c(-c4ccc(OC(C)C)c(OC)c4)c4c(N)ncnc4n3C)C2)CC1 [II-101],,0.01 to 1,0.01 to 1
0.01 to 1,C=CC(=O)N1CCC(N2CC(C#Cc3c(-c4ccc(OC)c(OC)c4)c4c(N)ncnc4n3C)C2)CC1 [II-106],,0.01 to 1,0.01 to 1
1 to 10,C=CC(=O)N1CCC(N2CC(C#Cc3c(-c4ccc(OC5CC5)cc4)c4c(N)ncnc4n3C)C2)CC1 [II-100],,0.01 to 1,0.01 to 1
1 to 10,C=CC(=O)N1CC[C@@H](N2CC(C#Cc3c(-c4ccc5c(c4)OCCN5C)c4c(N)ncnc4n3C)C2)[C@@H](O)C1 [II-75],,1 to 10,1 to 10
0.01 to 1,"C=CC(=O)N1CCC(N2CC(F)(C#Cc3c(-c4ccc(Oc5cccc(C)n5)cc4)c4c(N)ncnc4n3C)C2)CC1 [II-203, 1-(4-[3-[2-(4-amino-7-methyl-5-[4-[(6-methylpyridin-2-yl)oxy]phenyl]-7H-pyrrolo [2,3-d]pyrimidin-6-yl)ethynyl]-3-fluoroazetidin-1-yl]piperidin-1-yl)prop-2-en-1-one]",0.01 to 1,0.01 to 1,
≤ 0.01,"Cn1c(C#CC2CCCN(C(=O)/C=C/CN3CCC3)CC2)c(-c2ccc(Oc3ccccc3)cc2)c2c(N)ncnc21 (stereo not drawn) [II-182, (E)-1-(4-((4-amino-7-methyl-5-(4-phenoxyphenyl)-7H-pyrrolo[2,3-d]pyrimidin-6-yl)ethynyl)azepan-1-yl)-4-(azetidin-1-yl)but-2-en-1-one]",≤ 0.01,≤ 0.01,
≤ 0.01,CC(C)n1c(C#CC2C3CN(C(=O)C=CCN(C)C)CC23)c(-c2cccc3c2OCO3)c2c(N)ncnc21 (stereo not drawn) [II-116],,≤ 0.01,≤ 0.01
0.01 to 1,C=CC(=O)N1CC[C@@H](N2CC(C#Cc3c(-c4ccc(Oc5nccs5)cc4)c4c(N)ncnc4n3C)C2)[C@@H](O)C1 [II-21],,0.01 to 1,0.01 to 1
0.01 to 1,C=CC(=O)N1CC[C@@H](N2CC(C#Cc3c(-c4ccc(Oc5cccc(C)n5)cc4OC)c4c(N)ncnc4n3C)C2)[C@@H](O)C1 [II-19],,1 to 10,0.01 to 1
≤ 0.01,C=CC(=O)N1CC[C@@H](N2CC(C#Cc3c(-c4ccc(Oc5ccccc5)c(OC)n4)c4c(N)ncnc4n3C)C2)[C@@H](F)C1 [II-330],,≤ 0.01,≤ 0.01
0.01 to 1,"Cn1c(C#CC2CC3(C2)CN(C(=O)/C=C/CN2CC(F)C2)C3)c(-c2ccc(Oc3ccccc3)cc2)c2c(N)ncnc21 [II-175, (E)-1-(6-((4-amino-7-methyl-5-(4-phenoxyphenyl)-7H-pyrrolo[2,3-d]pyrimidin-6-yl)ethynyl)-2-azaspiro[3.3]heptan-2-yl)-4-(3-fluoroazetidin-1-yl)but-2-en-1-one]",0.01 to 1,≤ 0.01,
≤ 0.01,C=CC(=O)N1CC[C@H](N2CC(C#Cc3c(-c4ccc(Cl)c(C)c4)c4c(N)ncnc4n3C(C)C)C2)[C@H](F)C1 [II-111],,0.01 to 1,0.01 to 1
0.01 to 1,Cc1cccc(Oc2ccc(-c3c(C#C[C@@H]4[C@H]5CN(C(=O)/C=C/CN(C)C)C[C@@H]45)n(C4CCOC4)c4ncnc(N)c34)cc2)n1 (mixture of isomers) [II-28],,0.01 to 1,0.01 to 1
≤ 0.01,"C=CC(=O)N1CCN([C@H]2C[C@@H](C#Cc3c(-c4ccc(Oc5ccccc5)cc4)c4c(N)ncnc4n3C)C2)C(=O)C1 [II-214, 4-acryloyl-1-((1s,3s)-3-((4-amino-7-methyl-5-(4-phenoxyphenyl)-7H-pyrrolo[2,3-d]pyrimidin-6-yl)ethynyl)cyclobutyl) piperazin-2-one]",≤ 0.01,≤ 0.01,
